Measurements as given in PubChem BioAssay (NCI).
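Step 1: Grow cells in 96-well plates. Step 2: Expose to compound for 48 hours at 5 concentrations. Step 3: Interpolate endpoints linearly; if unreached, use highest concentration. Definition used: TGI = concentration required for complete inhibition of growth.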

Legend:
Assay in all cases: NCI anticancer screen, dose series, 48 h
SNB-78 CNS = tested on: SNB-78 CNS
M14 melanoma = tested on: M14 melanoma
UO-31 renal = tested on: UO-31 renal
NCI-H460 lung = tested on: NCI-H460 lung
DMS 273 small cell lung = tested on: DMS 273 small cell lung
SF-539 CNS = tested on: SF-539 CNS
SW-620 colon = tested on: SW-620 colon
A549 NSCLC = tested on: A549 NSCLC
RPMI-8226 leukemia = tested on: RPMI-8226 leukemia
SK-OV-3 ovarian = tested on: SK-OV-3 ovarian
SF-295 CNS = tested on: SF-295 CNS
DMS 114 small cell lung = tested on: DMS 114 small cell lung
SR leukemia = tested on: SR leukemia
A498 renal = tested on: A498 renal
M19-MEL melanoma = tested on: M19-MEL melanoma
KM20L2 colon = tested on: KM20L2 colon
U251 CNS = tested on: U251 CNS
SN12C renal = tested on: SN12C renal
SK-MEL-5 melanoma = tested on: SK-MEL-5 melanoma
SK-MEL-2 melanoma = tested on: SK-MEL-2 melanoma
NCI-H522 lung = tested on: NCI-H522 lung
K-562 leukemia = tested on: K-562 leukemia
SNB-75 CNS = tested on: SNB-75 CNS
RXF 393 renal = tested on: RXF 393 renal
NCI-H23 lung = tested on: NCI-H23 lung
HOP-18 NSCLC = tested on: HOP-18 NSCLC
COLO 205 colon = tested on: COLO 205 colon
CCRF-CEM leukemia = tested on: CCRF-CEM leukemia
786-0 renal = tested on: 786-0 renal
OVCAR-3 ovarian = tested on: OVCAR-3 ovarian
OVCAR-4 ovarian = tested on: OVCAR-4 ovarian
ACHN renal = tested on: ACHN renal
IGROV1 ovarian = tested on: IGROV1 ovarian
OVCAR-8 ovarian = tested on: OVCAR-8 ovarian
HOP-62 NSCLC = tested on: HOP-62 NSCLC
EKVX NSCLC = tested on: EKVX NSCLC
TK-10 renal = tested on: TK-10 renal
MOLT-4 leukemia = tested on: MOLT-4 leukemia
HCT-116 colon = tested on: HCT-116 colon
HL-60(TB) leukemia = tested on: HL-60(TB) leukemia
MALME-3M melanoma = tested on: MALME-3M melanoma
KM12 colon = tested on: KM12 colon
DLD-1 colon = tested on: DLD-1 colon
LXFL 529 NSCLC = tested on: LXFL 529 NSCLC
SNB-19 CNS = tested on: SNB-19 CNS
HT29 colon = tested on: HT29 colon
LOX IMVI melanoma = tested on: LOX IMVI melanoma
HCT-15 colon = tested on: HCT-15 colon
UACC-62 melanoma = tested on: UACC-62 melanoma
UACC-257 melanoma = tested on: UACC-257 melanoma
SK-MEL-28 melanoma = tested on: SK-MEL-28 melanoma
OVCAR-5 ovarian = tested on: OVCAR-5 ovarian

CN(C)CC/C(=N\Nc1c(Cl)cccc1Cl)c1ccccc1
TGI (SNB-78 CNS): 62.1 µM | TGI (M14 melanoma): 34.2 µM | TGI (UO-31 renal): 22.5 µM | TGI (NCI-H460 lung): 29.9 µM | TGI (DMS 273 small cell lung): 31.8 µM | TGI (SF-539 CNS): 34.2 µM | TGI (SW-620 colon): 36.8 µM | TGI (A549 NSCLC): > 100 µM | TGI (RPMI-8226 leukemia): 46.8 µM | TGI (SK-OV-3 ovarian): 52 µM | TGI (SF-295 CNS): 35.9 µM | TGI (DMS 114 small cell lung): 34 µM | TGI (SR leukemia): 63.4 µM | TGI (A498 renal): 34.8 µM | TGI (M19-MEL melanoma): 33.6 µM | TGI (KM20L2 colon): 33.1 µM | TGI (U251 CNS): 31.3 µM | TGI (SN12C renal): 92.7 µM | TGI (SK-MEL-5 melanoma): 29.5 µM | TGI (SK-MEL-2 melanoma): 34.1 µM | TGI (NCI-H522 lung): 33.9 µM | TGI (K-562 leukemia): 52.3 µM | TGI (SNB-75 CNS): 55.6 µM | TGI (RXF 393 renal): 28.5 µM | TGI (NCI-H23 lung): 33.4 µM | TGI (HOP-18 NSCLC): 51.1 µM | TGI (COLO 205 colon): 29.4 µM | TGI (CCRF-CEM leukemia): 79.3 µM | TGI (786-0 renal): 31.3 µM | TGI (OVCAR-3 ovarian): 65.9 µM | TGI (OVCAR-4 ovarian): 47.4 µM | TGI (ACHN renal): 50.5 µM | TGI (IGROV1 ovarian): 92.4 µM | TGI (OVCAR-8 ovarian): 37.6 µM | TGI (HOP-62 NSCLC): > 100 µM | TGI (EKVX NSCLC): 94.7 µM | TGI (TK-10 renal): 30.9 µM | TGI (MOLT-4 leukemia): 71.7 µM | TGI (HCT-116 colon): 29.1 µM | TGI (HL-60(TB) leukemia): 39.4 µM | TGI (MALME-3M melanoma): 43.6 µM | TGI (KM12 colon): 34.8 µM | TGI (DLD-1 colon): > 100 µM | TGI (LXFL 529 NSCLC): 29.5 µM | TGI (SNB-19 CNS): > 100 µM | TGI (HT29 colon): 29.3 µM | TGI (LOX IMVI melanoma): 31 µM | TGI (HCT-15 colon): 35.6 µM | TGI (UACC-62 melanoma): 29.9 µM | TGI (UACC-257 melanoma): 32.7 µM | TGI (SK-MEL-28 melanoma): 39.7 µM | TGI (OVCAR-5 ovarian): 35.7 µM
